Test results: the supplement of paper PMC11451515

Experiments:
Conditions in all cases: 48 h
P12-Ichikawa [1] = assay: AUC of viability dose-response curve (% viability x log10 dose units); higher = less sensitive
In short: (§1)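 Area under the curve was integrated by trapezoidal rule from a log-logistic fit of normalised viability, with curves exceeding full viability scaled and quality-control failures removed. The fit had four parameters over log10 doses. Viability came from CellTiter-Glo One luminescence, normalised per plate to DMSO and cell-free wells, after leukemia cells adapted to each medium (500 or 1000 cells/well, 1536-well plates) were exposed to library compounds in DMSO for 48 h at 37°C. The 11 threefold doses ran from 47 μM to 0.79 nM.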

NOMO1 [2] = assay: as above
In short: as §1

SEM cells [3] = assay: as above
In short: as §1

P12-Ichikawa [4] = assay: cell viability relative to DMSO control; higher = less cytotoxic
In short: (§2)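 NOMO1 or SEM cells were plated at 500 cells/well and P12-Ichikawa cells at 1000 cells/well in 1536-well plates (5 μl), after each leukemia line had been adapted for at least four passages in each medium. Pin dosing delivered library compounds in DMSO at 11 threefold concentrations, 47 μM to 0.79 nM. CellTiter-Glo One luminescence was read after 48 h at 37°C. Viability is reported as a per-plate percentage of DMSO wells, with cell-free wells as background.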

NOMO1 [5] = assay: as above
In short: as §2

SEM cells [6] = assay: as above
In short: as §2

O=C(/C=C/c1cccc([S+](=O)([O-])Nc2ccccc2)c1)NO
AUC of viability dose-response curve
Conditions | NOMO1 [2] | P12-Ichikawa [1] | SEM cells [3]
HPLM + 10% dialyzed FBS | 396 | 362 | 284
RPMI 5 mM glucose + 10% FBS | 402 | 352 | 277
RPMI 5 mM glucose + 10% dialyzed FBS | 397 | 365 | 289

cell viability [%]
Conditions | NOMO1 [5] | P12-Ichikawa [4] | SEM cells [6]
HPLM + 10% dialyzed FBS, 0.000781 µM | 143 | 115 | 113
HPLM + 10% dialyzed FBS, 0.00234 µM | 112 | 115 | 119
HPLM + 10% dialyzed FBS, 0.00702 µM | 121 | 125 | 122
HPLM + 10% dialyzed FBS, 0.0211 µM | 120 | 119 | 129
HPLM + 10% dialyzed FBS, 0.0632 µM | 154 | 129 | 124
HPLM + 10% dialyzed FBS, 0.19 µM | 132 | 129 | 75.6
HPLM + 10% dialyzed FBS, 0.569 µM | 139 | 126 | 58.4
HPLM + 10% dialyzed FBS, 1.71 µM | 129 | 101 | 26.4
HPLM + 10% dialyzed FBS, 5.12 µM | 88 | 20.8 | 12.2
HPLM + 10% dialyzed FBS, 15.4 µM | 12.2 | 7.58 | 8.53
HPLM + 10% dialyzed FBS, 46.1 µM | 9.85 | 7.44 | 8.48
RPMI 5 mM glucose + 10% FBS, 0.000781 µM | – | – | 106
RPMI 5 mM glucose + 10% FBS, 0.00234 µM | – | – | 150
RPMI 5 mM glucose + 10% FBS, 0.00702 µM | – | – | 124
RPMI 5 mM glucose + 10% FBS, 0.0211 µM | – | – | 120
RPMI 5 mM glucose + 10% FBS, 0.0632 µM | – | – | 118
RPMI 5 mM glucose + 10% FBS, 0.19 µM | – | – | 81.1
RPMI 5 mM glucose + 10% FBS, 0.569 µM | – | – | 53
RPMI 5 mM glucose + 10% FBS, 1.71 µM | – | – | 26.7
RPMI 5 mM glucose + 10% FBS, 5.12 µM | – | – | 10.6
RPMI 5 mM glucose + 10% FBS, 15.4 µM | – | – | 8.84
RPMI 5 mM glucose + 10% FBS, 46.1 µM | – | – | 8.83
RPMI 5 mM glucose + 10% dialyzed FBS, 0.000781 µM | – | – | 95.9
RPMI 5 mM glucose + 10% dialyzed FBS, 0.00234 µM | – | – | 123
RPMI 5 mM glucose + 10% dialyzed FBS, 0.00702 µM | – | – | 120
RPMI 5 mM glucose + 10% dialyzed FBS, 0.0211 µM | – | – | 113
RPMI 5 mM glucose + 10% dialyzed FBS, 0.0632 µM | – | – | 128
RPMI 5 mM glucose + 10% dialyzed FBS, 0.19 µM | – | – | 83.6
RPMI 5 mM glucose + 10% dialyzed FBS, 0.569 µM | – | – | 52
RPMI 5 mM glucose + 10% dialyzed FBS, 1.71 µM | – | – | 20.9
RPMI 5 mM glucose + 10% dialyzed FBS, 5.12 µM | – | – | 9.84
RPMI 5 mM glucose + 10% dialyzed FBS, 15.4 µM | – | – | 8.65
RPMI 5 mM glucose + 10% dialyzed FBS, 46.1 µM | – | – | 8.77

OC(=O)\C1=C\N(C2=CC=C(F)C=C2)C3=C(C=C(F)C(=C3)N4CCNCC4)C1=O
AUC of viability dose-response curve
Conditions | NOMO1 [2] | P12-Ichikawa [1] | SEM cells [3]
HPLM + 10% dialyzed FBS | 447 | 457 | 446
RPMI 5 mM glucose + 10% FBS | 475 | 464 | 476
RPMI 5 mM glucose + 10% dialyzed FBS | 451 | 452 | 448

cell viability [%]
Conditions | NOMO1 [5] | P12-Ichikawa [4] | SEM cells [6]
HPLM + 10% dialyzed FBS, 0.000781 µM | 113 | 121 | 89.5
HPLM + 10% dialyzed FBS, 0.00234 µM | 99.1 | 116 | 101
HPLM + 10% dialyzed FBS, 0.00702 µM | 116 | 112 | 100
HPLM + 10% dialyzed FBS, 0.0211 µM | 111 | 124 | 101
HPLM + 10% dialyzed FBS, 0.0632 µM | 129 | 124 | 105
HPLM + 10% dialyzed FBS, 0.19 µM | 122 | 117 | 90.7
HPLM + 10% dialyzed FBS, 0.569 µM | 114 | 114 | 82.4
HPLM + 10% dialyzed FBS, 1.71 µM | 105 | 115 | 89.4
HPLM + 10% dialyzed FBS, 5.12 µM | 101 | 108 | 86.4
HPLM + 10% dialyzed FBS, 15.4 µM | 95.6 | 103 | 90
HPLM + 10% dialyzed FBS, 46.1 µM | 98.6 | 91 | 93.9
RPMI 5 mM glucose + 10% FBS, 0.000781 µM | 103 | 126 | 101
RPMI 5 mM glucose + 10% FBS, 0.00234 µM | 99.1 | 118 | 108
RPMI 5 mM glucose + 10% FBS, 0.00702 µM | 110 | 118 | 120
RPMI 5 mM glucose + 10% FBS, 0.0211 µM | 101 | 120 | 92.1
RPMI 5 mM glucose + 10% FBS, 0.0632 µM | 104 | 117 | 114
RPMI 5 mM glucose + 10% FBS, 0.19 µM | 104 | 113 | 112
RPMI 5 mM glucose + 10% FBS, 0.569 µM | 117 | 112 | 97.2
RPMI 5 mM glucose + 10% FBS, 1.71 µM | 104 | 121 | 95.7
RPMI 5 mM glucose + 10% FBS, 5.12 µM | 115 | 117 | 110
RPMI 5 mM glucose + 10% FBS, 15.4 µM | 98.4 | 99.1 | 113
RPMI 5 mM glucose + 10% FBS, 46.1 µM | 94.6 | 92.1 | 103
RPMI 5 mM glucose + 10% dialyzed FBS, 0.000781 µM | 107 | 119 | 103
RPMI 5 mM glucose + 10% dialyzed FBS, 0.00234 µM | 106 | 111 | 103
RPMI 5 mM glucose + 10% dialyzed FBS, 0.00702 µM | 116 | 115 | 112
RPMI 5 mM glucose + 10% dialyzed FBS, 0.0211 µM | 105 | 115 | 125
RPMI 5 mM glucose + 10% dialyzed FBS, 0.0632 µM | 106 | 104 | 107
RPMI 5 mM glucose + 10% dialyzed FBS, 0.19 µM | 113 | 114 | 111
RPMI 5 mM glucose + 10% dialyzed FBS, 0.569 µM | 133 | 111 | 87.5
RPMI 5 mM glucose + 10% dialyzed FBS, 1.71 µM | 100 | 102 | 113
RPMI 5 mM glucose + 10% dialyzed FBS, 5.12 µM | 105 | 108 | 95.3
RPMI 5 mM glucose + 10% dialyzed FBS, 15.4 µM | 104 | 91.5 | 95.1
RPMI 5 mM glucose + 10% dialyzed FBS, 46.1 µM | 85.8 | 87.2 | 87.3

Cc1nccn1CC1CCc2c(c3ccccc3n2C)C1=O (configuration not stated)
AUC of viability dose-response curve
Conditions | NOMO1 [2] | P12-Ichikawa [1] | SEM cells [3]
HPLM + 10% dialyzed FBS | 447 | 448 | 441
RPMI 5 mM glucose + 10% FBS | 465 | 422 | 453
RPMI 5 mM glucose + 10% dialyzed FBS | 462 | 462 | 429

cell viability [%]
Conditions | NOMO1 [5] | P12-Ichikawa [4] | SEM cells [6]
HPLM + 10% dialyzed FBS, 0.000781 µM | – | 124 | 118
HPLM + 10% dialyzed FBS, 0.00234 µM | – | 125 | 120
HPLM + 10% dialyzed FBS, 0.00702 µM | – | 121 | 135
HPLM + 10% dialyzed FBS, 0.0211 µM | – | 128 | 132
HPLM + 10% dialyzed FBS, 0.0632 µM | – | 127 | 142
HPLM + 10% dialyzed FBS, 0.19 µM | – | 127 | 120
HPLM + 10% dialyzed FBS, 0.569 µM | – | 111 | 110
HPLM + 10% dialyzed FBS, 1.71 µM | – | 106 | 117
HPLM + 10% dialyzed FBS, 5.12 µM | – | 103 | 104
HPLM + 10% dialyzed FBS, 15.4 µM | – | 112 | 116
HPLM + 10% dialyzed FBS, 46.1 µM | – | 108 | 92
RPMI 5 mM glucose + 10% FBS, 0.000781 µM | 115 | – | 121
RPMI 5 mM glucose + 10% FBS, 0.00234 µM | 108 | – | 119
RPMI 5 mM glucose + 10% FBS, 0.00702 µM | 114 | – | 127
RPMI 5 mM glucose + 10% FBS, 0.0211 µM | 122 | – | 114
RPMI 5 mM glucose + 10% FBS, 0.0632 µM | 105 | – | 115
RPMI 5 mM glucose + 10% FBS, 0.19 µM | 105 | – | 105
RPMI 5 mM glucose + 10% FBS, 0.569 µM | 111 | – | 127
RPMI 5 mM glucose + 10% FBS, 1.71 µM | 111 | – | 104
RPMI 5 mM glucose + 10% FBS, 5.12 µM | 108 | – | 108
RPMI 5 mM glucose + 10% FBS, 15.4 µM | 112 | – | 109
RPMI 5 mM glucose + 10% FBS, 46.1 µM | 105 | – | 85.4
RPMI 5 mM glucose + 10% dialyzed FBS, 0.000781 µM | 113 | 115 | –
RPMI 5 mM glucose + 10% dialyzed FBS, 0.00234 µM | 116 | 124 | –
RPMI 5 mM glucose + 10% dialyzed FBS, 0.00702 µM | 115 | 124 | –
RPMI 5 mM glucose + 10% dialyzed FBS, 0.0211 µM | 121 | 125 | –
RPMI 5 mM glucose + 10% dialyzed FBS, 0.0632 µM | 118 | 126 | –
RPMI 5 mM glucose + 10% dialyzed FBS, 0.19 µM | 112 | 112 | –
RPMI 5 mM glucose + 10% dialyzed FBS, 0.569 µM | 113 | 117 | –
RPMI 5 mM glucose + 10% dialyzed FBS, 1.71 µM | 111 | 118 | –
RPMI 5 mM glucose + 10% dialyzed FBS, 5.12 µM | 109 | 116 | –
RPMI 5 mM glucose + 10% dialyzed FBS, 15.4 µM | 106 | 114 | –
RPMI 5 mM glucose + 10% dialyzed FBS, 46.1 µM | 104 | 105 | –
